Test results reported in patent US8809369B2, “Tetrahydroquinoline derivatives” (Hoffmann-La Roche Inc., priority 2011, dated 2014).

System: AMP-activated protein kinase (AMPK)
Experiment: p-AMPK expression level in L6 cell line by Western blot
Format: cell-based
Conditions: L6 cells, 2 hours compound treatment
Description: (§1) Evaluation of p-AMPK and p-ACC expression level in L6 cell line by Western-Blot
(§2) This method evaluates the changes of AMP-activated protein kinase (AMPK) and ACC (acetyl-CoA carboxylase) activity by small molecular modulators through detecting the level of p-AMPK and p-ACC proteins in L6 cells using Western blot.
(§3) L6 cells are maintained in DMEM medium supplemented with 10% FBS in 10-cm dishes. Prior to compounds treatment, L6 cells are seeded in 12-well-plates at concentration of 3×10^4 cells per well. After 24 hours of incubation in 12-well plates, L6 cells are differentiated by replacing the 10% FBS-DMEM medium with 2% FBS-DMEM. Differentiation usually takes 5 days, during which the culture medium is changed every 2 days.
(§4) The compound concentrations typically range from 32 μM to 0.5 μM with 2-fold dilution in 2 ml DMEM and 7 doses. The final DMSO concentration is 0.4%. Berberine is used as a positive control at concentration of 16 μM. Before compound treatment, starve L6 cells for 2 hours by replacing the medium with DMEM, and then gently aspirate the media from each well. Add the compounds into the plates and incubate at 37 degree 5% CO2 for 2 hours.
(§5) Prepare lysis buffer (RIPA buffer with protease-inhibitors and phosphorate-inhibitors) and place it on ice. After two hour's compound treatment, aspirate the medium from 12-well plates, add 70 ul lysis buffer to each well and keep the plates on ice for 5 min. Then scrape the cell lysate off the plates and transfer it to 1.5 ml eppendorf tubes. Keep the tube on ice for more 10 min, centrifugate the lysate at 13000 rpm, 4 degrees for 15 min and transfer the supernatant to clean tubes.
(§6) Determine protein concentration for each sample using Quickstart Bradford protein quantitation kit. Mix 20 ug protein sample with 4 times loading buffer, heat them at 100° C. for 5 min, store the sample in −80° C. or perform Western blot assay directly. For Western blot assay, load 20 ug samples and 10 ul Pre-stained Protein Maker into 4-12% SDS-PAGE gradient gel. Run the samples at 100 V in the stacking gel and at 120 V in resolving gel until the Bromophenol dye reaches the bottom. Transfer the electrophoresed proteins to a PVDF membrane using Bio-Rad's Transblot for 120 min at 300 mA. Following the completion of transfer, the membrane is blocked with 5% non-fat milk for 2 hours at room temperature before incubated with primary antibody (p-AMPK and p-ACC) at 4° C. overnight. On the next day wash the membrane twice with TBST, add secondary antibody and incubate for 1 hour at room temperature. Wash the membrane twice with TBST. Develop p-AMPK and p-ACC protein expression level on the film in dark room with Amersham ECL plus kit. The bands of each sample are quantitated by Bio-Rad system, The AC1.3 value is analyzed using Prism 5.0.

Compound	Activity AC1.3 (AMPKp) [µM]
CC(C)(Nc1cc(F)cc(C2CC(C)(C)c3cc(S(=O)(=O)NC4CCC4)ccc3N2)c1)C(=O)O (centres unmarked) [Example 86, 2-[3-(6-Cyclobutylsulfamoyl-4,4-dimethyl-1,2,3,4-tetrahydro-quinolin-2-yl)-5-fluoro-phenylamino]-2-methyl-propionic acid]	0.003
CC1(C)CC(c2cc(F)cc(NC3(C(=O)O)CC3)c2)Nc2ccc(S(=O)(=O)NC3CCC3)cc21 (centres unmarked) [Example 87, 1-[3-(6-Cyclobutylsulfamoyl-4,4-dimethyl-1,2,3,4-tetrahydro-quinolin-2-yl)-5-fluoro-phenylamino]-cyclopropanecarboxylic acid]	0.002

System: ACC (acetyl-CoA carboxylase)
Experiment: p-ACC expression level in L6 cell line by Western blot
Format: cell-based
Conditions: Rattus norvegicus, L6 cells, 2 hours compound treatment, read-out: Activity AC1.3 (ACCp)
Description: as §1, §2, §3, §4, §5, §6

Compound	EC (1.3-fold) [µM]
CC1(C)CC(c2cccc(N3CCOCC3)c2)Nc2ccc(C(=O)NS(=O)(=O)C3CC3)cc21 (centres unmarked) [Example 1, Cyclopropanesulfonic acid [4,4-dimethyl-2-(3-morpholin-4-yl-phenyl)-1,2,3,4-tetrahydro-quinoline-6-carbonyl]-amide]	1.4
CC1(C)CC(c2cc(F)cc(N3CCOCC3)c2)Nc2ccc(C(=O)NS(=O)(=O)C3CC3)cc21 (centres unmarked) [Example 6, Cyclopropanesulfonic acid [2-(3-fluoro-5-morpholin-4-yl-phenyl)-4,4-dimethyl-1,2,3,4-tetrahydro-quinoline-6-carbonyl]-amide]	3.5
CC1(c2ccccc2)CC(c2ccc(F)c(Cl)c2)Nc2ccc(C(=O)NS(C)(=O)=O)cc21 (centres unmarked) [Example 7, N-[2-(3-chloro-4-fluoro-phenyl)-4-methyl-4-phenyl-1,2,3,4-tetrahydro-quinoline-6-carbonyl]-methanesulfonamide]	< 16
CCCS(=O)(=O)NC(=O)c1ccc2c(c1)C(C)(C)CC(c1ccc(F)c(Cl)c1)N2 (centres unmarked) [Example 8, Propane-1-sulfonic acid [2-(3-chloro-4-fluoro-phenyl)-4,4-dimethyl-1,2,3,4-tetrahydro-quinoline-6-carbonyl]-amide]	< 32
CC(C)S(=O)(=O)NC(=O)c1ccc2c(c1)C(C)(C)CC(c1cccc(N3CCOCC3)c1)N2 (centres unmarked) [Example 9, Propane-2-sulfonic acid [4,4-dimethyl-2-(3-morpholin-4-yl-phenyl)-1,2,3,4-tetrahydro-quinoline-6-carbonyl]-amide]	4.5
CC1(C)CC(c2cccc(N3CCOCC3)c2)Nc2c(C(=O)NS(C)(=O)=O)cccc21 (centres unmarked) [Example 10, N-[4,4-dimethyl-2-(3-morpholin-4-yl-phenyl)-1,2,3,4-tetrahydro-quinoline-8-carbonyl]-methanesulfonamide]	< 0.2
CC1(C)CC(c2cccc(N3CCOCC3)c2)Nc2c(C(=O)NS(=O)(=O)C3CC3)cccc21 (centres unmarked) [Example 11, Cyclopropanesulfonic acid [4,4-dimethyl-2-(3-morpholin-4-yl-phenyl)-1,2,3,4-tetrahydro-quinoline-8-carbonyl]-amide]	0.3
CC(C)NS(=O)(=O)c1ccc2c(c1)C(C)(C)CC(c1cccc(N3CCOCC3)c1)N2 (centres unmarked) [Example 13, 4,4-Dimethyl-2-(3-morpholin-4-yl-phenyl)-1,2,3,4-tetrahydro-quinoline-6-sulfonic acid isopropylamide]	0.4
CC1(C)CC(c2cccc(N3CCNCC3)c2)Nc2ccc(S(=O)(=O)N3CCOCC3)cc21 (centres unmarked) [Example 14, 4,4-Dimethyl-6-(morpholine-4-sulfonyl)-2-(3-piperazin-1-yl-phenyl)-1,2,3,4-tetrahydro-quinoline]	4.7
CC1(C)CC(c2cccc(C(F)(F)F)c2)Nc2ccc(C(=O)NS(C)(=O)=O)cc21 (centres unmarked) [Example 30, N-[4,4-dimethyl-2-(3-trifluoromethyl-phenyl)-1,2,3,4-tetrahydro-quinoline-6-carbonyl]-methanesulfonamide]	0.002
CC1(C)CC(c2cccc(C(F)(F)F)c2)Nc2ccc(C(=O)NS(=O)(=O)C3CC3)cc21 (centres unmarked) [Example 31, Cyclopropanesulfonic acid [4,4-dimethyl-2-(3-trifluoromethyl-phenyl)-1,2,3,4-tetrahydro-quinoline-6-carbonyl]-amide]	2
CC(C)(C)c1ccc(-c2cccc(C3CC(C)(C)c4cc(C(=O)NS(C)(=O)=O)ccc4N3)c2)cc1 (centres unmarked) [Example 39, N-[2-(4′-tert-butyl-biphenyl-3-yl)-4,4-dimethyl-1,2,3,4-tetrahydro-quinoline-6-carbonyl]-methanesulfonamide]	1.4
CC1(C)CC(c2cccc(-c3nnnn3C3CC3)c2)Nc2ccc(C(=O)NS(=O)(=O)C3CC3)cc21 (centres unmarked) [Example 41, Cyclopropanesulfonic acid {2-[3-(1-cyclopropyl-1H-tetrazol-5-yl)-phenyl]-4,4-dimethyl-1,2,3,4-tetrahydro-quinoline-6-carbonyl}-amide]	1.16
CC(C)Oc1ccc(-c2cccc(C3CC(C)(C)c4cc(C(=O)NS(C)(=O)=O)ccc4N3)c2)cc1 (centres unmarked) [Example 45, N-[2-(4′-isopropoxy-biphenyl-3-yl)-4,4-dimethyl-1,2,3,4-tetrahydro-quinoline-6-carbonyl]-methanesulfonamide]	< 8
CC(C)Oc1ccc(-c2cccc(C3CC(C)(C)c4cc(C(=O)NS(=O)(=O)C5CC5)ccc4N3)c2)cc1 (centres unmarked) [Example 46, Cyclopropanesulfonic acid [2-(4′-isopropoxy-biphenyl-3-yl)-4,4-dimethyl-1,2,3,4-tetrahydro-quinoline-6-carbonyl]-amide]	< 8
CCc1ccc(N2CCOCC2)cc1C1CC(C)(C)c2cc(C(=O)NS(=O)(=O)C3CC3)ccc2N1 (centres unmarked) [Example 47, Cyclopropanesulfonic acid [2-(2-ethyl-5-morpholin-4-yl-phenyl)-4,4-dimethyl-1,2,3,4-tetrahydro-quinoline-6-carbonyl]-amide]	62.4
CC1(C)CC(c2cccc(N3CCOCC3)c2)Nc2cc(C(=O)NS(C)(=O)=O)ccc21 (centres unmarked) [Example 55, N-[4,4-dimethyl-2-(3-morpholin-4-yl-phenyl)-1,2,3,4-tetrahydro-quinoline-7-carbonyl]-methanesulfonamide]	0.7
CC1(C)CC(c2cccc(N3CCN(c4ccccc4F)CC3)c2)Nc2c(C(=O)NS(=O)(=O)C3CC3)cc(F)cc21 (centres unmarked) [Example 60, Cyclopropanesulfonic acid (6-fluoro-2-{3-[4-(2-fluoro-phenyl)-piperazin-1-yl]-phenyl}-4,4-dimethyl-1,2,3,4-tetrahydro-quinoline-8-carbonyl)-amide]	7.33
CC1(C)CC(c2cccc(N3CCOCC3)c2)Nc2c(C(=O)NS(C)(=O)=O)cc(Cl)cc21 (centres unmarked) [Example 62, N-[6-chloro-4,4-dimethyl-2-(3-morpholin-4-yl-phenyl)-1,2,3,4-tetrahydro-quinoline-8-carbonyl]-methanesulfonamide]	68
CC1(C)CC(c2cccc(N3CCOCC3)c2)Nc2c(C(=O)NS(=O)(=O)C3CC3)cc(Cl)cc21 (centres unmarked) [Example 63, Cyclopropanesulfonic acid [6-chloro-4,4-dimethyl-2-(3-morpholin-4-yl-phenyl)-1,2,3,4-tetrahydro-quinoline-8-carbonyl]-amide]	5.2
CC1(C)CC(c2cccc(N3CCOC3=O)c2)Nc2c(C(=O)NS(=O)(=O)C3CC3)cc(Cl)cc21 (centres unmarked) [Example 65, Cyclopropanesulfonic acid {6-chloro-4,4-dimethyl-2-[3-(2-oxo-oxazolidin-3-yl)-phenyl]-1,2,3,4-tetrahydro-quinoline-8-carbonyl}-amide]	12.8
CC1(C)CC(c2cccc(N3CCCC3)c2)Nc2c(C(=O)NS(C)(=O)=O)cc(F)cc21 (centres unmarked) [Example 69, N-[6-fluoro-4,4-dimethyl-2-(3-pyrrolidin-1-yl-phenyl)-1,2,3,4-tetrahydro-quinoline-8-carbonyl]-methanesulfonamide]	0.1
CC1(C)CC(c2cccc(N3CCCC3)c2)Nc2c(C(=O)NS(=O)(=O)C3CC3)cc(F)cc21 (centres unmarked) [Example 70, Cyclopropanesulfonic acid [6-fluoro-4,4-dimethyl-2-(3-pyrrolidin-1-yl-phenyl)-1,2,3,4-tetrahydro-quinoline-8-carbonyl]-amide]	0.57
CC(C)(C)c1ccc(-c2cncc(C3CC(C)(C)c4cc(C(=O)NS(C)(=O)=O)ccc4N3)c2)cc1 (centres unmarked) [Example 73, N-{2-[5-(4-tert-butyl-phenyl)-pyridin-3-yl]-4,4-dimethyl-1,2,3,4-tetrahydro-quinoline-6-carbonyl}-methanesulfonamide]	0.1
